According to patent US20240166626A1, “Compounds and Methods for Preventing, Treating, or Ameliorating Airway Disease” (THOMAS JEFFERSON UNIVERSITY, priority 2021, published 2024):

System: HASM cells
Assay: Human airway smooth muscle cell scratch (migration) assay
Format: cell-based
Settings: 1 μM DFPQ, PDGF, 24 hours, FIG. 4F
Description: FIGS. 4A-4F: DFPQ inhibits internalization of the β2AR and protects from agonist induced desensitization in cell and tissue models. FIG. 4A: Effect of DFPQ on agonist-promoted internalization of the β2AR. HEK 293 cells stably expressing FLAG-β2AR were pre-incubated with 0.1% DMSO or 10 μM DFPQ for 30 min and then stimulated with the indicated concentrations of ISO for up to 60 min. Cells were fixed and receptor surface expression was measured by ELISA. […] Cells were lysed and cAMP production was measured by ELISA. […] FIG. 4C: Mouse airway tissue were contracted with 1 μM methacholine for 5 min and then incubated overnight with 1 μM ISO±1 μM DFPQ. Airway slices were washed, re-contracted with methacholine, and incubated with ISO for 1 hour (n=4 bronchioles). Airway contractility was measured by luminal area of bronchioles by microscopy at various times. FIG. 4D: Bar graphs represent normalized ISO-promoted relaxation from methacholine contraction on day 2 of treatment at the 25 min timepoint from 4 tracheal rings. *, p<0.05 FIG. 4E: HASM cells were scratched and incubated overnight in PDGF containing serum free media. Cells were imaged to evaluate migration into the scratched area. FIG. 4F: Densitometric analysis of migration into scratched area (n=3 experiments). ***, p<0.001; **, p<0.01
Cell culture GLOSENSOR™ cells (Promega) were maintained in Dulbecco's modified Eagle's medium (DMEM) containing 10% fetal bovine serum (FBS) and 200 μg/ml Hygromycin B. […]® ADRB2 cells (DiscoveRx) were maintained with the AssayComplete™ Cell Culture kit (DiscoveRx catalog #92-3107G). […] Cells were read every three minutes for 18 minutes on a PolarStar Optima plate reader (BMG) to establish peak signal. ISO was added to each well to a final concentration of 1 μM, and luminescence was determined in kinetic mode at room temperature (23-25° C.). Response was analyzed relative to forskolin (7 μM) and alprenolol (1 μM) as positive and negative controls, respectively. […] Luminescence was determined at room temperature (23-25° C.) on a PolarStar Optima plate reader (BMG). […]

Fc1ccc(Nc2nc(NC3CCCCC3)c3ccccc3n2)cc1F [DFPQ, N^4-cyclohexyl-N^2-(3,4-difluorophenyl)quinazoline-2,4-diamine]
effect on β-agonist (SAL or ISO) reduction of HASM migration: significantly enhanced
